# Source: US10279190B2, “Treating disease with resonance generating electromagnetic fields” (Anapole Technologies Inc., priority 2016, dated 2019)
# Marks after values point to notes of the source that are not given here.
# Columns and labels:
# U-87 MG cells [1] = assay: U-87 MG cell number (count & viability) after docetaxel treatment; format: cell-based; conditions: 25 nM docetaxel, 72 hours, vs vehicle control, not significant
# Method: (§1) U-87 MG cells may be plated at a density of 8×10^5 cells/150-mm dish. 48 hours after plating, cells may be treated with vehicle control or 25 nM docetaxel for 72 hours. At the end of treatment, cells may be harvested by trypsinization, and an aliquot of live/unfixed cells may be used to determine cell number, PS externalization, and caspase-3/7 activity using a cell analyzer. Remaining cells may be fixed for cell cycle analysis using a cell analyzer and DNA fragmentation analysis by BD LSRII Flow Cytometry as described below.
# (§2) U-87 MG cells harvested by trypsinization may be pooled with media plus washes and pelleted by centrifugation. The cells may be re-suspended in complete media diluted 1:10 with PBS (1% FBS/PBS). For determination of count and viability, an aliquot of the cell suspension may be diluted 1:10 with a count & viability reagent, which differentially stains viable and non-viable cells based on their permeability to two DNA binding dyes, and incubated for 5 minutes in the dark at room temperature according to manufacturer's protocol. For detection of phosphatidylserine (PS) externalization, an aliquot of cell suspension appropriately diluted in 1% FBS/PBS may be mixed 1:1 with an Annexin V & dead cell reagent and incubated for 20 minutes in the dark at room temperature according to manufacturer's protocol. […]
# U-87 MG cells [2] = assay: Cell cycle analysis of U-87 MG cells (cell cycle reagent, propidium iodide); format: cell-based; conditions: 25 nM, 72 hour treatment; proportion of cells in cell cycle phase, mean±SD, n=3
# Method: as §1
# Cleavage by active caspase-3/7 releases the dye within the cell and results in translocation to the nucleus, binding to DNA and high fluorescence. For cell cycle analysis, an ethanol-fixed cell suspension may be obtained by taking an aliquot of cell suspension, pelleting by centrifugation, resuspending in PBS, and fixing in 70% ethanol at −20° C. Fixed cells may be washed in PBS/0.2% BSA, pelleted by centrifugation, resuspended in a cell cycle reagent, and incubated for 30 minutes in the dark at room temperature according to manufacturer's protocol. A cell cycle reagent may be a proprietary formulation containing the DNA intercalating dye propidium iodide and RNAse A. The multiparametric fluorescent detection of individual cells may be performed by a cell analyzer, a microcapillary flow cytometer equipped with a 532-nm laser, a forward scatter and two fluorescence (YLW 576/26, RED 680/30) detectors. Data acquisition and analysis of count & viability, Annexin V & dead cell, and caspase-3/7 assays may be done by analysis software. Post-acquisition analysis of cell cycle data may be performed using software (e.g., FlowJo 7.6.5).
# Table 5 is a cell cycle analysis of U-87 MG cells after 72 hour treatment with 25 nM docetaxel. At the end of 72 hour treatment, cells may be harvested and cell cycle may be determined by incubating the cells in a cell cycle reagent and following the manufacturer's protocol. Data represent the mean±SD of three independent biological replicates (*p<0.1).
# U-87 MG cells [3] = assay: DNA fragmentation of U-87 MG cells (APO-BRDU, flow cytometry); format: cell-based; conditions: 25 nM, 72 hour treatment; percentage of the cell population, mean±SD, n=2
# Method: as §1
# For analysis of DNA fragmentation, U-87 MG cells may be harvested by trypsinization, collected by centrifugation, fixed in 2% formaldehyde in PBS, and permeabilized in 70% EtOH at −20° C. DNA strand breaks in cells undergoing apoptosis may be indirectly labeled with bromodeoxyuridine by terminal transferase and detected by FITC-conjugated monoclonal antibody to bromodeoxyuridine using the APO-BRDU kit according to manufacturer's protocol. Cells may be counterstained with 5 μg/ml propidium iodide containing RNase A for detection of total DNA, and two-color analysis of DNA strand breaks and cell cycle may be achieved by flow cytometry. Flow cytometric analysis may be performed on a BD LSR II Flow Cytometer equipped with three excitation lasers (405-nm, 488-nm and 633-nm). For DNA fragmentation analysis, FITC and PI signals may be collected by 488-nm octagon detection array with no color compensation. 10,000 events gated on single cell populations may be collected and post-acquisition analysis may be performed using software FlowJo 7.6.5.
# Table 6 is an analysis of DNA fragmentation of U-87 MG cells after 72 hour treatment with 25 nM docetaxel. DNA fragmentation may be determined by flow cytometry as described above.
# U-87 MG cells [4] = assay: Caspase-3/7 activation in U-87 MG cells; format: cell-based; conditions: 25 nM, 72 hours, vs vehicle control
# Method: as §1
# U-87 MG cells harvested by trypsinization may be pooled with media plus washes and pelleted by centrifugation. The cells may be re-suspended in complete media diluted 1:10 with PBS (1% FBS/PBS). […]
# Cleavage by active caspase-3/7 releases the dye within the cell and results in translocation to the nucleus, binding to DNA and high fluorescence. […] A cell cycle reagent may be a proprietary formulation containing the DNA intercalating dye propidium iodide and RNAse A. The multiparametric fluorescent detection of individual cells may be performed by a cell analyzer, a microcapillary flow cytometer equipped with a 532-nm laser, a forward scatter and two fluorescence (YLW 576/26, RED 680/30) detectors. […]
# U-87 MG cells [5] = assay: PS externalization (Annexin V staining) in U-87 MG cells; format: cell-based; conditions: 25 nM, 72 hours, vs vehicle control
# Method: as §1, §2
# U-87 MG cells [6] = conditions: 25 nM, 72 hours; "has been shown"; cited from earlier work
compound,measurement,setting,value
"CC(=O)O[C@@]12CO[C@@H]1C[C@H](O)[C@@]1(C)C(=O)[C@H](O)C3=C(C)[C@@H](OC(=O)[C@H](O)[C@@H](NC(=O)OC(C)(C)C)c4ccccc4)C[C@@](O)([C@@H](OC(=O)c4ccccc4)[C@H]21)C3(C)C [Docetaxel, docetaxel]",decrease in U-87 MG cell number,U-87 MG cells [1],20%
same,decrease in U-87 MG cell number,U-87 MG cells [1]; listed as docetaxel,approximately 20%
same,G1,U-87 MG cells [2],39.7 ± 4.8*
same,G2/M,U-87 MG cells [2],22.1 ± 4.4
same,S,U-87 MG cells [2],26.7 ± 1.7*
same,Sub-G0,U-87 MG cells [2],9.9 ± 3.9*
same,DNA Frag (+) Apoptotic bodies (upper left quadrant),U-87 MG cells [3],0.10 ± 0.0%
same,DNA Frag (+) Cells (upper right quadrant),U-87 MG cells [3],2.11 ± 1.69%
same,DNA Frag (−) Apoptotic bodies (lower left quadrant),U-87 MG cells [3],3.57 ± 1.65%
same,DNA Frag (−) Cells (lower right quadrant),U-87 MG cells [3],94.2 ± 0.07%
same,caspase-3/7 activation,U-87 MG cells [4],significant increase
same,Annexin V positive cells,U-87 MG cells [5],significant increase
same,"arresting cell growth in U-87 MG cells, compared with temozolomide",U-87 MG cells [6],as effective as temozolomide
